Source: ChEMBL document CHEMBL1932978, “Inhibitors of human 2,3-oxidosqualene cyclase (OSC) discovered by virtual screening” (Bioorg Med Chem Lett, 2012)

Tests used:
[1] = target: T1, Lanosterol synthase (Homo sapiens) (UniProt P48449); test: Inhibition of human OSC expressed in Saccharomyces cerevisiae at 20 uM by gas chromatography relative to LDAO2
T1 sequence (whole entry): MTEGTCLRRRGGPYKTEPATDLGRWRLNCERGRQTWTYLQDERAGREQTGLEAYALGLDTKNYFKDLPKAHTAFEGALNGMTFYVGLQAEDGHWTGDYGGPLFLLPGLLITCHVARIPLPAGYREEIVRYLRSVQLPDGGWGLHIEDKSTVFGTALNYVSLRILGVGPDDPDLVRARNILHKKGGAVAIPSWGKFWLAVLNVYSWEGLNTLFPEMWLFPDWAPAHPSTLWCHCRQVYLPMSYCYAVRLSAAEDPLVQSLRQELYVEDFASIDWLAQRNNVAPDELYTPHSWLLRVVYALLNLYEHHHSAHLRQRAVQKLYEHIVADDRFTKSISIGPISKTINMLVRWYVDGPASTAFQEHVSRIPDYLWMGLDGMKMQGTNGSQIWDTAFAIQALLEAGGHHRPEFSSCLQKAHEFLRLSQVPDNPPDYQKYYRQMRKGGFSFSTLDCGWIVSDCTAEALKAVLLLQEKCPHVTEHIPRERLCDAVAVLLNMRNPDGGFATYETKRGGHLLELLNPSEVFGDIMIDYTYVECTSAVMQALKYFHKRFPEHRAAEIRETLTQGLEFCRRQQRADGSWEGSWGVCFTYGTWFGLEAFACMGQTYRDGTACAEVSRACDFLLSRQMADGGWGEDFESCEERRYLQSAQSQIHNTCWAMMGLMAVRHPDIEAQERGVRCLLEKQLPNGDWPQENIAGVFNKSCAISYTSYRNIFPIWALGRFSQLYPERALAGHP

[2] = target: T2, Lanosterol synthase (Homo sapiens, UniProt P48449); test: Inhibition of human OSC expressed in Saccharomyces cerevisiae by gas chromatography
T2 sequence (P48449 whole entry): T1 sequence (whole entry)

SMILES | inhibition [1] | IC50 [2]
O=C(CCc1ccc(CN2CCCC2)cc1)Cn1cnc2sc(-c3ccccc3)cc2c1=O | 87% | 5.02 µM
CN(C)Cc1ccc(CNCc2cnn(-c3ccccc3)n2)cc1 | 77% | –
O=C(Cc1ccc(Cl)cc1)c1ccc(C(=O)NCCCn2ccnc2)[nH]1 | 59% | –
S=C(NCc1ccccc1)Nc1ccc(Cc2ccncc2)cc1 | 96% | 4.75 µM
CN(C)Cc1ccc(CNC(=O)Nc2ccc(Cl)cc2)cc1 | 97% | 3.12 µM
Cc1cc(CNCc2ccc(CN(C)C)cc2)c(C)n1CC(C)C | 27% | –
COc1ccc(-n2c(C)cc(CNCc3ccc(CN(C)C)cc3)c2C)cc1 | 75% | –
CCCCCCCCCCCC[N+](C)(C)[O-] | 100% | 6.31 µM
CN(C)Cc1ccc(CNC(=O)COc2ccc3ccccc3c2)cc1 | 83% | 10.8 µM
CN(C)Cc1ccc(CNC(=O)c2ccc(C(F)(F)F)cc2)cc1 | 101% | 1.38 µM
